Experimental data: patent US20100239635A1, “DRUG DELIVERY MEDICAL DEVICE” (MICELL TECHNOLOGIES, INC., priority 2009, published 2010)

How the values were obtained:
bladder cancer = details: optimized schedule: 40 mg/20 cc (compared with 20 mg/20 cc), overnight dehydration, complete bladder emptying, alkalinization with sodium bicarbonate; cited from earlier work
[1] = cited from earlier work
[2] = design: dose or concentration left out as unconfirmed; details: estradiol release, as its 3-acetate ester; cited from earlier work
[3] = In vivo study of coating and drug transfer from a stent, porcine coronary artery model; design: species or system Yucatan pig; details: for amount of drug detected in the arterial tissue: stent as in Example 1
Experimental: Another sample of the coated stent was prepared for in vivo evaluation in a porcine coronary artery model using the Yucatan pig. Subjects were initially given 650 mg acetylsalicylic acid and 300 mg Plavix. Maintenance doses of 81 mg acetylsalicylic acid and 75 mg Plavix were administered. The target ACT (activated clotting time) for the procedure was about 250 seconds. Stent oversizing in relation to the artery was about 10-20%. The preparation of the sirolimus-coated stent was the same as described in Example 1 and used for the in vitro deployment into tubing, except that the device was sterilized using ETO prior to implantation into the animal.
The bulk concentration of drug was measured in the arterial tissue surrounding the implanted stent at 1, 3, 7, 14, and 28 days after implant, and provided a quantitative measure of the high efficiency of transfer of drug into the therapeutic site using devices and methods of the invention. The amount of drug that was detected in the arterial tissue was as follows: 1 day after implant, ˜6 μg; 3 days after implant, ˜16 μg; 7 days after implant, ˜30 μg; 14 days after implant, ˜30 μg; 28 days after implant, ˜13 μg. Peak tissue concentration of sirolimus of ˜30 μg at 14 days after implant was representative of approximately ⅙^th of the total drug that had been loaded on the stent. Note that some drug likely metabolized or diffused out of the arterial tissue into other areas of the body.

[4] = given intravesically in doses as high as 1 billion units; cited from earlier work

CO[C@@]12[C@H](COC(N)=O)C3=C(C(=O)C(C)=C(N)C3=O)N1C[C@@H]1N[C@@H]12 [Mitomycin C, mitomycin C]
recurrence (bladder cancer): nearly cut in half | stability in acid urine [1]: inactivated

C[C@]12CC[C@@H]3c4ccc(O)cc4CC[C@H]3[C@@H]1CC[C@@H]2O [estradiol]
circulating plasma concentration of the drug [2]: 300 pmol/L

CO[C@H]1C[C@@H]2CC[C@@H](C)[C@@](O)(O2)C(=O)C(=O)N2CCCC[C@H]2C(=O)O[C@H]([C@H](C)C[C@@H]2CC[C@@H](O)[C@H](OC)C2)CC(=O)[C@H](C)/C=C(\C)[C@@H](O)[C@@H](OC)C(=O)[C@H](C)C[C@H](C)/C=C/C=C/C=C/1C [sirolimus]
amount of drug detected in the arterial tissue ([3]; 1 day after implant): ~6 µg | amount of drug detected in the arterial tissue ([3]; 3 days after implant): ~16 µg | amount of drug detected in the arterial tissue ([3]; 7 days after implant): ~30 µg | amount of drug detected in the arterial tissue ([3]; 14 days after implant): ~30 µg | amount of drug detected in the arterial tissue ([3]; 28 days after implant): ~13 µg | Peak tissue concentration of sirolimus ([3]; at 14 days after implant): ~30 µg | peak tissue amount as fraction of the total drug loaded on the stent ([3]; at 14 days after implant): approximately ⅙

Interferon Alpha 2b
dose-limiting side effects [4]: without dose-limiting side effects
